Measurements from ChEMBL document CHEMBL1134491, “QSAR and molecular modeling studies of baclofen analogues as GABA(B) agonists. Insights into the role of the aromatic moiety in GABA(B) binding and activation” (J Med Chem, 2001).

Assay: Inhibitory concentration against binding of (R)-(-)-[3H]-baclofen to GABAB sites on rat whole brain synaptic membrane

Cc1ccc([C@H](CN)CC(=O)O)o1
IC50: > 100 µM

NC[C@H](CC(=O)O)c1ccsc1
IC50: 20.9 µM

NC[C@H](CC(=O)O)c1ccco1
IC50: > 100 µM

NC[C@H](CC(=O)O)c1cc(Cl)cs1
IC50: 45.3 µM

Cc1ccc([C@H](CN)CC(=O)O)s1
IC50: 134 µM

NC[C@H](CC(=O)O)c1ccc(F)cc1
IC50: 0.8 µM

NC[C@H](CC(=O)O)c1ccc(Cl)s1
IC50: 0.61 µM

Cc1ccsc1[C@H](CN)CC(=O)O
IC50: 124 µM

NC[C@H](CC(=O)O)c1ccc(Br)s1
IC50: 1.86 µM

NC[C@H](CC(=O)O)c1cccs1
IC50: 9.72 µM

NC[C@H](CC(=O)O)c1cc(Br)cs1
IC50: 39.1 µM

NC[C@H](CC(=O)O)c1ccc(O)cc1
IC50: > 100 µM

NC[C@H](CC(=O)O)c1cccc(Cl)c1
IC50: 20 µM

NC[C@H](CC(=O)O)c1ccccc1Cl
IC50: 0.8 µM
